Test results from patent EP0017976A2, “Process for preparing imidazole derivatives” (F. HOFFMANN-LA ROCHE & CO. Aktiengesellschaft, priority 1979, dated 1980).

Tests used:
[1] = test system: Schistosoma mansoni; experiment: Schistosomicidal effect: share of living and dead worm pairs in liver vessels of infected mice, treated vs untreated; VD50 by probit method; assay type: in vivo; settings: mice infected with cercariae of Schistosoma mansoni; qualitative statement only, VD50 not given
Text: Die schistosomicide Wirkung wurde ermittelt durch Vergleich des prozentualen Anteils lebender und toter Wurmpaare in den Gefässen der Leber sowohl bei mit Cercarien von Schistosoma mansoni infizierten, behandelten Mäusen als auch bei infizierten aber unbehandelten Kontrolltieren. Die Bestimmung der VD50 (Vermicide Dosis 50%: Dosis, die 50% der Wurmpaare abtötet) erfolgte nach der Probitmethode.

[2] = test system: ventralen Prostata und der Samenblase; experiment: Antiandrogenic effect: weight decrease of ventral prostate and seminal vesicle in male sterilised rats; assay type: in vivo, Ratten; settings: qualitative statement only
Text: Die antiandrogene Wirkung wurde durch Bestimmung der Gewichtsabnahme der ventralen Prostata und der Samenblase von männlichen sterilisierten Ratten ermittelt.

Row | SMILES | schistosomicide Wirkung [1] | antiandrogene Wirkung [2]
1 | CC1(C)NC(=O)N(c2ccc(F)c(C(F)(F)F)c2)C1=N [1-(3-Trifluormethyl-4-fluor-phenyl)-5-imino-4,4-dimethyl-2-imidazolidinon] | starken schistosomiciden Wirkung | 
2 | CC1(C)NC(=O)N(c2ccc(F)c(C(F)(F)F)c2)C1=O [3-(3-Trifluormethyl-4-fluorphenyl)-5,5-dimethyl-hydantoin] | starken schistosomiciden Wirkung | 
3 | CC1(C)NC(=O)N(c2ccc(F)c(Cl)c2)C1=O [3-(3-Chlor-4-fluor-phenyl)-5,5-dimethylhydantoin] |  | antiandrogen wirksame
